# Assay results from US6350758B1, “Tropane derivatives and method for their synthesis” (Georgetown University, priority 1996, dated 2002).
# Molecular target: T1, dopamine transporter (Rattus norvegicus, UniProt P23977)
# T1 construct: Synaptosomes were prepared by homogenizing fresh tissue in 20 volumes of ice-cold 0.32 M sucrose; from tissue; host or cells: striatal (caudate nucleus) synaptosomes from fresh brain tissue
# Test: Test B: uptake of [3H]dopamine and [3H]serotonin into striatal synaptosomes
# Type: biochemical
# Details: dopamine vs serotonin transporter
# Protocol: Uptake of [^3H]dopamine and [^3H]serotonin was carried out using synaptosomes from the same brain regions as described above for binding assays. A Krebs phosphate buffer, pH 7.4, containing 1 μM pargyline, dextrose (1.9 mg/ml), and ascorbic acid (0.2 mg/ml) was used. Synaptosomes were prepared by homogenizing fresh tissue in 20 volumes of ice-cold 0.32 M sucrose using a glass-teflon homogenizer. Nuclei and large tissue fragments were removed by centrifugation at 800×g for 10 minutes. The supernatant was centrifuged at 20,000×g for 15 minutes to collect synaptosomes in a pellet. The pellet was resuspended in 0.32 M sucrose at a concentration of 15, 100 or 10 mg/ml original wet weight, and diluted 10 fold in the assay tubes. The final assay volume was 1.0 ml and the duration of incubation at 30° C. was 3 minutes so that uptake was inear with time in contrast to binding assays where binding had reached equilibrium.
# Ki values were determined using serial dilutions of the analogues. A thirty minute preincubation of the analogues with the tissue was utilized before uptake was initiated by adding tritiated substrate. The preincubation was utilized to allow analogue and transporters to reach an equilibrium so that kinetic effects were not a significant factor. Ki values were determined using standard techniques.
# T1 sequence (P23977 whole entry): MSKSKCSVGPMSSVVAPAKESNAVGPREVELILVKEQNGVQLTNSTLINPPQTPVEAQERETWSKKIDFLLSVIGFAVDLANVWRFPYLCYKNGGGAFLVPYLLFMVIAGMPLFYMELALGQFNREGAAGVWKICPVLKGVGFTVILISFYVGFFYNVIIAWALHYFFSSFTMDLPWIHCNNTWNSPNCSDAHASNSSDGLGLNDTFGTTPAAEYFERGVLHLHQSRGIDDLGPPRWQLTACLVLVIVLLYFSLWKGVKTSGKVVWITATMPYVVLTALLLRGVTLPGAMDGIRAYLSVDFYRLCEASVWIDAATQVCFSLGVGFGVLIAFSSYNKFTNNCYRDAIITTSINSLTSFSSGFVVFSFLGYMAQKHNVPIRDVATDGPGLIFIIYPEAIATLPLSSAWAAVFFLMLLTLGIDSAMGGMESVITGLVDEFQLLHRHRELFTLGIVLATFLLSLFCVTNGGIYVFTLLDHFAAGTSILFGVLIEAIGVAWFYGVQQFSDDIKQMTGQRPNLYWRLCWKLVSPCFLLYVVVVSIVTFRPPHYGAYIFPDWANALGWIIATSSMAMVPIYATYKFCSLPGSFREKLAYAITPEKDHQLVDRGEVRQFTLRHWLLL
row,SMILES,selectivity for the dopamine transporter relative to the serotonin transporter
1,"CN1[C@H]2CC[C@@H]1[C@@H](c1ccccc1)[C@H](c1ccccc1)C2 [compound 49, (1R,5S)-2β-Phenyl-3α-phenyltropane]",highly selective
2,"Cc1ccc([C@@H]2C[C@@H]3CC[C@H]([C@H]2c2ccccc2)N3C)cc1 [compound 37, (1R, 5S)-2β-Phenyl-3α-(p-tolyl)tropane]",highly selective
